# Measured values: ChEMBL document CHEMBL1126447 (Bioorg Med Chem Lett, 1992)
# Key:
# [1] = molecular target: Acetylcholinesterase (Electrophorus electricus, UniProt O42275)
# Description: Inhibition of acetylcholinesterase (AChE) in electric eel (type V-S) by modified radiometric assay
# [2] = molecular target: Butyrylcholinesterase (Equus caballus, UniProt Q9N1N9)
# Description: Inhibition of (BChE) Butyrylcholinesterase of horse serum
# [3] = molecular target: Acetylcholinesterase (Homo sapiens, UniProt P22303)
# Acetylcholinesterase (Homo sapiens, UniProt P22303), sequence (P22303 whole entry): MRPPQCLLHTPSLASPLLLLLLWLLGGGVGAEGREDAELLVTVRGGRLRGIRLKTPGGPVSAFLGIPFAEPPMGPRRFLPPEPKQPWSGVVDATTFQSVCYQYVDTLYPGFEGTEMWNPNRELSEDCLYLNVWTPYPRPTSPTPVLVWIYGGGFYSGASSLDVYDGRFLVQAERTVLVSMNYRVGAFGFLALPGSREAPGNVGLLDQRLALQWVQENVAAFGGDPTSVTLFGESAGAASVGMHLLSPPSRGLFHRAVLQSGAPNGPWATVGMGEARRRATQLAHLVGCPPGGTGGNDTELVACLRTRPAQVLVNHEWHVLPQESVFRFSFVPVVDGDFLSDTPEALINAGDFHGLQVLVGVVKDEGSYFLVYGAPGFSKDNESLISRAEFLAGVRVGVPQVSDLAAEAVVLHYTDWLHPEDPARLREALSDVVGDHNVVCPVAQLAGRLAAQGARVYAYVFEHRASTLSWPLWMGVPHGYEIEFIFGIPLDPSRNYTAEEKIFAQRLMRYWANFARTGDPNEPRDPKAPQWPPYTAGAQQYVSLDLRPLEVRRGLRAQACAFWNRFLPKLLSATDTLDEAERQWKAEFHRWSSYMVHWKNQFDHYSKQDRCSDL
# Description: Inhibition of acetylcholinesterase (AChE) of human red blood cell (type XIII) by modified radiometric AChE assay
# Butyrylcholinesterase, sequence (Q9N1N9 whole entry): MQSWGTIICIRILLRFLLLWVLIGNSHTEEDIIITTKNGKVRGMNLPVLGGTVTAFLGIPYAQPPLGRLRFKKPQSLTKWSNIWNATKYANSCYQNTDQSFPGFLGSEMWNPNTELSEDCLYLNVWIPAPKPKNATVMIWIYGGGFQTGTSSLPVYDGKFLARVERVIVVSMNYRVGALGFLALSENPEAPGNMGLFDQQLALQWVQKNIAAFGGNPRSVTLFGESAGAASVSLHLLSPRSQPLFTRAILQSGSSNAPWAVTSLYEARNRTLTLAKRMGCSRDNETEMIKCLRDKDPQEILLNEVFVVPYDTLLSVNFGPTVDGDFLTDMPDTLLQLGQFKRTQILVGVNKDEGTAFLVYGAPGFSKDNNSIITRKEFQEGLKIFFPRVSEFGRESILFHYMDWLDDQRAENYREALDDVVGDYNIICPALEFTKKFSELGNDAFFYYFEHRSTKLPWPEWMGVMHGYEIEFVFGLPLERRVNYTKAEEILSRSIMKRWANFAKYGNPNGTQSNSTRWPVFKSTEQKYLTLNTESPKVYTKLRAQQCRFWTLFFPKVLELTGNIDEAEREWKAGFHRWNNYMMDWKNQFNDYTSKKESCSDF
# Acetylcholinesterase (Electrophorus electricus, UniProt O42275), sequence (O42275 whole entry): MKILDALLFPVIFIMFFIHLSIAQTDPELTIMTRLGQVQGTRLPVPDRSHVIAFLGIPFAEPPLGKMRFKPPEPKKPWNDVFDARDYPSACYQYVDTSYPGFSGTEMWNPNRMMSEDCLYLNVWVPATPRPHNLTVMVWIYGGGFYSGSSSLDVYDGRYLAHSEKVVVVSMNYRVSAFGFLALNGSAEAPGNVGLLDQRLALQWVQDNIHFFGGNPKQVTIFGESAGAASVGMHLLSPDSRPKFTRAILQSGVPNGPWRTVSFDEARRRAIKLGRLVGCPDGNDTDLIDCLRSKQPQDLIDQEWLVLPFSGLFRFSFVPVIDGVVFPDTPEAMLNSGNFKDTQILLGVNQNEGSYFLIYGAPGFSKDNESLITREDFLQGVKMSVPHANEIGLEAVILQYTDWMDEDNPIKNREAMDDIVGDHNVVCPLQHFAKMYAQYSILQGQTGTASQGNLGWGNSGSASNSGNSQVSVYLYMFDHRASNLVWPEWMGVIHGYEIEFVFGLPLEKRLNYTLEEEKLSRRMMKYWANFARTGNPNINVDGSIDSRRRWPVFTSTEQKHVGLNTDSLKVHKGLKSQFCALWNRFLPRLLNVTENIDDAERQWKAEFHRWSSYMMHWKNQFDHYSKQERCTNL
compound,measurement,setting,value
Nc1c2c(nc3cccc(Cl)c13)CCCC2,IC50,[1],4.43 nM
same,IC50,[2],12.7 nM
same,IC50,[3],9.4 nM
Nc1c2c(nc3cc(Cl)ccc13)CCCC2,IC50,[1],2.87 nM
Nc1c2c(nc3cc(Cl)ccc13)C1CCC2C1 (centres undefined),IC50,[1],2.33 nM
same,IC50,[2],21.7 nM
same,IC50,[3],4.5 nM
Nc1c2c(nc3c(Cl)cccc13)C1CCC2C1 (centres undefined),IC50,[1],493 nM
same,IC50,[2],207 nM
same,IC50,[3],84.3 nM
Nc1c2c(nc3cccc(Cl)c13)C1CCC2C1 (centres undefined),IC50,[1],6.52 nM
same,IC50,[2],15.3 nM
same,IC50,[3],42.2 nM
Nc1c2c(nc3c(Cl)cccc13)CCCC2,IC50,[1],36 nM
same,IC50,[2],45 nM
same,IC50,[3],68.9 nM
Nc1c2c(nc3ccccc13)C1CCC2C1 (centres undefined),IC50,[1],11.7 nM
same,IC50,[2],1.3 nM
Nc1c2c(nc3ccc(Cl)cc13)CCCC2,IC50,[1],40 nM
same,IC50,[2],0.7 nM
same,IC50,[3],743 nM
CNC(=O)Oc1ccc2c(c1)[C@]1(C)CCN(C)[C@@H]1N2C [PHYSOSTIGMINE],IC50,[2],4670 nM
Nc1c2c(nc3ccccc13)CCCC2O (centres undefined) [VELNACRINE],IC50,[1],59.8 nM
same,IC50,[2],53.3 nM
